From patent US8648111B2, “N1-2-thiophene-2-ylethyl-N2-substituted biguanide derivate, preparation method thereof, and pharmaceutical composition containing the same as active ingredients” (Hanall Biopharma Co., Ltd., priority 2008, dated 2014)
“And” between values parts separate entries of the source, which are not always exact repeats. Identical values can stand only once.

What was measured:
Type in all cases: cell-based
HepG2 cells [1] = test: Measurement of gluconeogenesis inhibitory ability (14C-lactate, glucose formed in cells)
Description: (§1) 2 mM metformin was used as a comparative compound for each of the plates (control group).
HepG2 cells (ATCC: American Type Culture Collection) were cultured in 10% serum-containing high glucose media, transferred to no serum-containing low glucose media (DMEM (Gibco), FBS (Gibco)), and then treated with 100 μM of each of the compounds for 24 hours. Then, the cells were treated with 0.5 μCi ^14C-lactate (Amersham Pharmacia) and 10 mM L-lactate (Sigma), and cultured for 4 hours. After cultivation, the media were removed therefrom, and the cells were washed with PBS, treated with 0.1N NaOH and kept at room temperature for 1 hour. Then, the cells were neutralized with 1N HCl, and the content of glucose formed in the cells was measured with a liquid scintillation counter.
A lower measurement value means an increased gluconeogenesis inhibitory ability.

C2C12 cells = test: Measurement of glucose absorption ability (3H-deoxy-glucose uptake with insulin); settings: for Glucose absorption (100 uM) Aver.: 100 uM compound with 1 μM insulin, 24 hours, differentiated C2C12, higher value = stronger, more than 200% counts as glucose absorption ability
Description: as §1
C2C12 cells (ATCC: American Type Culture Collection), a muscle cell model, were induced to differentiate into muscle cells in 2% bovine fetal serum-containing media (DMEM (Gibco), FBS (Gibco)) for 6 days. The C2C12 cells which differentiated into muscle cells were transferred to serum-free low glucose media (DMEM (Gibco), FBS (Gibco)), treated with 100 μM of each of the compounds, and then cultured with 1 μM of insulin for 24 hours. After cultivation, the cells were treated with 1 μCi ^3H-deoxy-glucose (Amersham Pharmacia) and 10 μM deoxy-glucose (Sigma) at 37° C. for 15 minutes. The media were removed therefrom, and the cells were washed twice with PBS (phosphate buffered saline). The washed cells were treated with 0.1N NaOH and neutralized with 1N HCl. The content of glucose absorbed into the cells was measured with a liquid scintillation counter.
A higher measurement value means a stronger ability to reduce insulin resistance.

HepG2 cells [2] = test: Measurement of cholesterol synthesis inhibitory ability (cholesterol content in cell lysates, Amplex red); settings: HepG2; for Cholesterol (100 uM) Aver.: 100 uM compound; for Cholesterol (100 uM) Aver. / Cholesterol (500 uM) Aver.: 24 hours, lower value = stronger cholesterol synthesis inhibition; for Cholesterol (500 uM) Aver.: 500 uM compound
Description: as §1
A cholesterol synthesis inhibitory ability, which is an important function of AMPK (AMP-activated protein kinase), was measured using HepG2 cells (ATCC: American Type Culture Collection) as a hepatic cell model according to the following procedure.
The hepatic cell model HepG2 cells were cultured in 1% serum-containing media (DMEM (Gibco), FBS (Gibco)) for 24 hours, and then treated with 100 μM or 500 μM of each of the compounds prepared in Examples for 24 hours. Then, the cells were disrupted with a lysis solution (0.1 M potassium phosphate, pH 7.4, 0.05 M NaCl, 5 mM cholic acid, 0.1% Triton X-100 (Sigma)). To the disrupted cells was added the same volume of a reaction solution (2 U/mL of a cholesterol oxidizing agent, 2 U/mL of a peroxidase, 0.2 U/mL of a cholesterol esterase, and 300 μM of Amplex red as a fluorescent factor (Molecular Probe)), which was allowed to react at 37° C. for 30 minutes. After completion of the reaction, the content of cholesterol formed in the cell lysates was measured at a wavelength of 560/590 nm (ex/em) using a fluorescence microscope.
A lower measurement value means an increased cholesterol synthesis inhibitory ability.

HepG2 cells [3] = test: Measurement of triglyceride (triglyceride content in cell lysates, Amplex red); settings: HepG2; for Triglyceride (100 uM) Aver.: 100 uM compound; for Triglyceride (100 uM) Aver. / Triglyceride (500 uM) Aver.: 24 hours, lower value = stronger triglyceride synthesis inhibition; for Triglyceride (500 uM) Aver.: 500 uM compound
Description: as §1
HepG2 cells (ATCC: American Type Culture Collection) were cultured in 1% serum-containing media (DMEM (Gibco), FBS (Gibco)) for 24 hours, and then treated with 100 μM or 500 μM of each of the compounds prepared in Examples for 24 hours. Then, the cells were disrupted with a lysis solution (0.1 M potassium phosphate, pH 7.4, 0.05 M NaCl, 5 mM cholic acid, 0.1% Triton X-100). […] After completion of the reaction, the content of triglyceride formed in the cell lysates was measured at a wavelength of 560/590 nm (ex/em) using a fluorescence microscope.
A lower measurement value means an increased triglyceride synthesis inhibitory ability.

[4] = 100 μM compound vs 2 mM metformin, by comparison of used amounts
[5] = 100 uM compound, 24 hours, HepG2, lower value = stronger gluconeogenesis inhibition
[6] = 100 uM compound, 24 hours, HepG2, lower value = stronger gluconeogenesis inhibition, hydrochloride, 100 µM
[7] = 100 uM compound, 24 hours, HepG2, lower value = stronger gluconeogenesis inhibition, 100 µM
[8] = Metformin 2 mM, control group of each plate

SMILES | Glucose absorption (100 uM) Aver. (C2C12 cells) [%] | Cholesterol (100 uM) Aver. (HepG2 cells [2]) | Cholesterol (500 uM) Aver. (HepG2 cells [2]) | Triglyceride (100 uM) Aver. (HepG2 cells [3]) | Triglyceride (500 uM) Aver. (HepG2 cells [3]) | Gluconeogenesis inhibition (100 uM) Aver. (HepG2 cells [1]; [5]) | also measured
CCN=C(NCCc1cccs1)NC(=N)N.Cl [Example 1, N1-(thiophen-2-ylethyl)-N2-ethyl biguanide hydrochloride] | 322.7 | 45.18 | 30.51 | 56.70 | 54.57 | – | effect in inhibiting gluconeogenesis relative to control group (HepG2 cells [1]; [4]): at least 20 times; activity at 100 µM (HepG2 cells [1]; Homo sapiens, HepG2, 24 h, 100 uM compound, 24 hours, HepG2, lower value = stronger gluconeogenesis inhibition, read-out: Gluconeogenesis inhibition (100 uM) Aver.): 48.9%; glucose absorption effect relative to control group (C2C12 cells; [4]): about 20 times
CC(C)(C)CC(C)(C)N=C(NCCc1cccs1)NC(=N)N.Cl [Example 2, N1-2-(thiophen-2-ylethyl)-N2-t-octyl biguanide hydrochloride] | 10.46 | 63.63 | 55.38 | 29.21 | −1.92 | 68.28 | –
Cl.N=C(N)NC(=Nc1cccc2ccccc12)NCCc1cccs1 [Example 3, N1-2-(thiophen-2-ylethyl)-N2-1-naphthyl biguanide hydrochloride] | 15.10 | 30.90 | 31.14 | 5.28 | −6.37 | 3.73 | –
CCCCCCN=C(NCCc1cccs1)NC(=N)N.Cl [Example 4, N1-2-(thiophen-2-ylethyl)-N2-hexyl biguanide hydrochloride] | 14.31 | 33.81 | 51.74 | 22.80 | 3.22 | 26.40 | –
CN=C(NCCc1cccs1)NC(=N)N.Cl [Example 5, N1-2-(thiophen-2-ylethyl)-N2-methyl biguanide hydrochloride] | – | – | 41.36 | – | 41.59 | – | Gluconeogenesis inhibition (100 uM) Aver. (HepG2 cells [1]; [6]): 58.50; Glucose absorption (100 uM) Aver. (C2C12 cells; hydrochloride): 350.4%; Cholesterol (100 uM) Aver. (HepG2 cells [2]; hydrochloride): 49.29; Triglyceride (100 uM) Aver. (HepG2 cells [3]; hydrochloride): 65.03
Cl.N=C(N)NC(=NCc1ccccc1)NCCc1cccs1 [Example 8, N1-2-(thiophen-2-ylethyl)-N2-t-benzyl biguanide hydrochloride] | 243.3 | 37.77 | 7.28 | 77.65 | 30.78 | 81.27 | –
CCc1ccccc1N=C(NCCc1cccs1)NC(=N)N.Cl [Example 9, N1-2-(thiophen-2-ylethyl)-N2-2-ethylphenyl biguanide hydrochloride] | 252.6 | 39.25 | 7.55 | 74.99 | 19.51 | 74.23 | –
CN=C(NCCc1cccs1)NC(=N)N.Cl [Example 10, N1-2-(thiophen-2-ylethyl)-N2-methyl biguanide hydrochloride (isomer)] | 6.91 | 52.29 | – | 76.16 | – | – | Gluconeogenesis inhibition (100 uM) Aver. (HepG2 cells [1]; [7]): 5.72
CN=C(NCCc1cccs1)NC(=N)N.Cl [Example 11, N1-2-(thiophen-2-ylethyl)-N2-methyl biguanide hydrochloride (isomer)] | 321.21 | 71.14 | – | 74.98 | – | – | Gluconeogenesis inhibition (100 uM) Aver. (HepG2 cells [1]; [7]): 25.03
CN=C(NCCc1cccs1)NC(=N)N.Cl [Example 12, N1-2-(thiophen-2-ylethyl)-N2-methyl biguanide hydrochloride (isomer)] | 221.61 | 69.94 | – | 67.43 | – | – | Gluconeogenesis inhibition (100 uM) Aver. (HepG2 cells [1]; [7]): 13.05
CCCN=C(NCCc1cccs1)NC(=N)N.Cl [Example 13, N1-2-(thiophen-2-ylethyl)-N2-propyl biguanide hydrochloride] | 110.2 | 77.1 | 61.7 | 59.3 | 48.9 | 73.51 | –
Cl.N=C(N)NC(=Nc1cccc(C(F)(F)F)c1)NCCc1cccs1 [Example 14, N1-2-(thiophen-2-ylethyl)-N2-(3-trifluoromethyl)phenyl biguanide hydrochloride] | 4.38 | 23.3 | 41.4 | 11.8 | 13.2 | 8.75 | –
COc1ccc(N=C(NCCc2cccs2)NC(=N)N)cc1.Cl [Example 15, N1-2-(thiophen-2-ylethyl)-N2-(4-methoxy)phenyl biguanide hydrochloride] | – | – | – | – | – | – | Gluconeogenesis inhibition (100 uM) Aver. (HepG2 cells [1]; [6]): 86.69; Glucose absorption (100 uM) Aver. (C2C12 cells; hydrochloride): 124.3%; Cholesterol (100 uM) Aver. (HepG2 cells [2]; hydrochloride): 67.3; Cholesterol (500 uM) Aver. (HepG2 cells [2]; hydrochloride): 39.7; Triglyceride (100 uM) Aver. (HepG2 cells [3]; hydrochloride): 76.6; Triglyceride (500 uM) Aver. (HepG2 cells [3]; hydrochloride): 41.4
COc1ccc(OC)c(N=C(NCCc2cccs2)NC(=N)N)c1.Cl [Example 16, N1-2-(thiophen-2-ylethyl)-N2-(2,5-dimethoxy)phenyl biguanide hydrochloride] | – | – | – | – | – | – | Gluconeogenesis inhibition (100 uM) Aver. (HepG2 cells [1]; [6]): 68.89; Glucose absorption (100 uM) Aver. (C2C12 cells; hydrochloride): 147.3%; Cholesterol (100 uM) Aver. (HepG2 cells [2]; hydrochloride): 85.0; Cholesterol (500 uM) Aver. (HepG2 cells [2]; hydrochloride): 58.5; Triglyceride (100 uM) Aver. (HepG2 cells [3]; hydrochloride): 73.8; Triglyceride (500 uM) Aver. (HepG2 cells [3]; hydrochloride): 51.3
COc1cc(N=C(NCCc2cccs2)NC(=N)N)cc(OC)c1OC.Cl [Example 17, N1-2-(thiophen-2-ylethyl)-N2-(3,4,5-trimethoxy)phenyl biguanide hydrochloride] | 165.2 | 87.2 | 57.5 | 86.2 | 79.4 | 95.56 | –
Cl.N=C(N)NC(=Nc1ccc(F)cc1)NCCc1cccs1 [Example 18, N1-2-(thiophen-2-ylethyl)-N2-(4-fluorophenyl) biguanide hydrochloride] | 88.16 | 50.3 | 23.4 | 67.0 | 39.5 | 86.69 | –
CN(C)C(=N)N=C(N)N [Metformin, reference compound] | – | – | – | – | – | – | Gluconeogenesis inhibition Aver. (HepG2 cells [1]; Metformin 2 mM, control group of each plate, HepG2): 39.79 and 59.14 and 53.09 and 78.33 and 64.50; Cholesterol Aver. (HepG2 cells [2]; [8]): 65.31 and 74.50 and 85.91 and 70.69 and 73.31; Triglyceride Aver. (HepG2 cells [3]; [8]): 81.14 and 69.58 and 73.61 and 70.05 and 74.57
